The text below walks through data of patent US11116741B2, “Method for the treatment of valvular heart disease comprising administering a composition comprising sarpogrelate” (CEVA SANTE ANIMALE, priority 2017, dated 2021).

Data set [1] can be described thus: Blood 5-HT and urine 5-HIAA concentrations in mice given NdF by mini-osmotic pump. In kind it is in vivo. Here is the method: (§1) These lesions appear as endothelial cells recruitment and migration into the valvular leaflets with intense production of extracellular matrix.
(§2) Before the start of the experiment, baseline systolic blood pressure, heart rate and body weight were measured. […] The dose of sarpogrelate administered was 2 mg/kg/day. The experiment started two days after the subcutaneous implantation so as to allow the activation of the mini-osmotic pump. Systolic blood pressure, heart rate and body weight were measured each week until the end of the experiment. At the term (day 28), urinary samples were collected from mice to determine 5-hydroxy-indol acetic acid concentration (5-HIAA which is a serotonin metabolite).
Then, mice were euthanized using an injection of a […] dose of pentobarbital followed by an intra-cardiac blood puncture and whole blood serotonin concentration was determined.
All plasma was collected and analyzed in a single run.

In the next data set the test system is mitral valve leaflet. In words: Histological morphometric analysis of mitral valve (thickness, cellularity) in NdF induced mitral remodeling. In kind it is in vivo, mice. Here is the method: as §1, §2
For morphometric analysis, one sagittal section (5 μm in thickness) is obtained after paraffin embedding and stained with hematoxylin and eosin stain. In each section, mitral valves are examined and cellularization counted. Extreme care is taken in sectioning the heart so that the valves are mainly cut transversely (with the attachment sides of the leaflets visible on both ends of the valve).
Valve histological morphometric analysis is performed visually using a microscope (Leica DM750®, Germany) with a 40× calibrated objective connected to a camera and a data acquisition and analysis system (Leica/Microsystems®LAS V4.8) by a single operator. Practically, on each section, the operator applies a large square of 250 μm×250 μm divided in 100 equal parts of 25 μm×25 μm each. For the quantification, the whole mitral valve leaflet section is divided in three equal parts. The proximal region is the one nearest the base cusp, followed by the medial and the distal regions. The proximal, medial and distal parts thicknesses are measured on three distinct sites in each region. The mean result is expressed in μm, in table 8.
The density of endothelial cells is evaluated in proximal, medial and distal regions. The numbers of cells is determined on a leaflet length of 25×4 μm (100 μm2). The result (mean) is expressed in number of cells per 100 μm2.

Data set [2] concerns the target 5-HT2A receptor compared to the 5-HT2B one (Homo sapiens, UniProt P28223). Conditions: in words; Life Sci. 73, 193-207; cited from earlier work.
Data set [3] in a line: Body weight, food intake, water intake, systolic blood pressure and heart rate in the NdF mouse model. In kind it is in vivo, mice. The following applies: for Water intake: estimation of the water intake per cage per day: g = ml. Here is the method:
as §2

Entries after “also recorded” stand apart in the source; their conditions may differ.

Chain of 5-HT2A receptor compared to the 5-HT2B one (P28223 whole entry): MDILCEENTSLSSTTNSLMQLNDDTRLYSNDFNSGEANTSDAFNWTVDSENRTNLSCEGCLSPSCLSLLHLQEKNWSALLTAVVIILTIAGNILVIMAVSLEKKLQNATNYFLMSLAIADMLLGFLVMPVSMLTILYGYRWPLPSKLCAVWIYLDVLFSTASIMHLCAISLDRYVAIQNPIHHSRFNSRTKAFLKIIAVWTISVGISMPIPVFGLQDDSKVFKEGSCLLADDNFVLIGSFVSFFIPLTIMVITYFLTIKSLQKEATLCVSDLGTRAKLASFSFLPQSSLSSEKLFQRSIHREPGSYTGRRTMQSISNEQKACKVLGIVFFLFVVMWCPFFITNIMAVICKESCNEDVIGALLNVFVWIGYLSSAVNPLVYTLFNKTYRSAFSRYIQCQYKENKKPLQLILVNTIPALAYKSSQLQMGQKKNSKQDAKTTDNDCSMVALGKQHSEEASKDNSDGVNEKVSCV

With `COc1cccc(CCc2ccccc2OCC(CN(C)C)OC(=O)CCC(=O)O)c1` (centres unmarked) [sarpogrelate], in data set [1] (in words), the “Effect on total blood (plasma) concentration of serotonin (5-HT)” value is given as “reduces” and the “Effect on urinary 5-HIAA” value was “reduces”. Moreover, in the data set on mitral valve leaflet (in words), the “Effect on interstitial migration of endothelial cells” value was “reduces”, the “Effect on mitral valve thickness” value is listed as “nearly completely prevented; also recorded: markedly reduces” and the “Effect on valve interstitial cellularity” value is recorded as “prevents the increase”. Further, the “Receptor subtype preference (5-HT2A vs 5-HT2B)” value in data set [2] was “preferably blocking the 5-HT2A receptor”.
As to `C[C@H](N)Cc1cccc(C(F)(F)F)c1` [NdF, nordexfenfluramine], the “Effect on total blood (plasma) concentration of serotonin (5-HT)” value in data set [1] (in words) is given as “increases”. In data set [1] (urine, day 28, mean, NdF 1 mg/kg/day, sarpogrelate 2 mg/kg/day), this compound displayed a 5-HIAA of 10.62 mg/L. The 5-HT in data set [1] (whole blood, day 28, mean, NdF 1 mg/kg/day, sarpogrelate 2 mg/kg/day) was determined as 2259.78 µg/L. In data set [3] (Week 0 (baseline)), the Body weight is given as 25.10 g, the Heart rate was determined as 539.7 beats/min and the Systolic blood pressure amounted to 100.2 mmHg. Further, in data set [3] (Week 1), the Body weight is on record as 26.20 g, the “Food intake: estimation of the food intake for each mouse per week” value (“Food intake: estimation … per week” below) was 32.83 g, the Heart rate is reported as 579.5 beats/min and the Systolic blood pressure is 108.9 mmHg. Moreover, the “Water intake: estimation of the water intake per cage per day” value (“Water intake: estimation … per day” for short) in data set [3] (Week 1) is 31.43 g. For the same compound, in data set [3] (Week 2), the “Food intake: estimation … per week” value is 30.71 g, the Heart rate came out at 571.8 beats/min, the Systolic blood pressure was found to be 97.5 mmHg and the “Water intake: estimation … per day” value is reported as 31.86 g. Besides, in data set [3] (Week 3), the Body weight is on record as 27.20 g, the “Food intake: estimation … per week” value is 35.13 g, the Heart rate is listed as 498.0 beats/min and the “Water intake: estimation … per day” value is 32.14 g. For the same compound, in data set [3] (Week 4), the Body weight amounted to 26.50 g, the “Food intake: estimation … per week” value is on record as 26.38 g, the Heart rate amounted to 559.3 beats/min and the Systolic blood pressure is given as 99.5 mmHg. For the same compound, the “Water intake: estimation … per day” value in data set [3] (Week 4) was 33.07 g. The “Mitral valve thickness (mean)” value in the data set with mitral valve leaflet (day 28, mean of proximal, medial and distal parts, NdF 1 mg/kg/day, sarpogrelate 2 mg/kg/day) is 67.467 μm. In the data set on mitral valve leaflet (day 28, mitral valve), the “Endothelial cellularity (mean)” value worked out at 9.988 cells/0.01 mm^2 and the “Interstitial cellularity (mean)” value was 22.011 cells/0.01 mm^2. In the data set on mitral valve leaflet (in words), the “Effect on mitral valve thickness” value was “massive increase” and the “Effect on valve interstitial cellularity” value is given as “increase”.
